From US10973912B2, “Treatment for myopathy” (Children's Medical Center Corporation, priority 2015, dated 2021)
Values joined by “and” are separate entries in the source; they are usually repeats but may differ in a detail not shown here. Equal entries are not always repeated. Structures can show the parent of a compound that is named as a salt.

Key:
[1] = test system: satellite cell expansion and muscle generation; settings: in vitro and in mice, aging and dystrophic mouse models; cited from earlier work
[2] = test system: ryr1b homozygous mutant zebrafish; type: in vivo, zebrafish (Danio rerio); settings: for touch-evoked escape behaviors / mobility of ryr1b mutants: treated from 1 dpf, scored and genotyped at 5 dpf
Protocol: In two independent experiments, two pools of 20 larvae from heterozygous ryr1b matings were treated with DMSO or with one of three different concentrations of NIF (1.0-100.0 μg/mL) at 1 dpf and evaluated in terms of touch-evoked escape behaviors at 5 dpf (n=40). Following phenotypic scoring, all living embryos were genotyped using three-primer genomic PCR. Swimming scores for larvae genotype-confirmed as ryr1b homozygous mutants are shown as a percentage of the total number of living larvae in each dose category: 1=poor swimming; 2 or 3=moderate or wild-type swimming. NIF improved mobility of ryr1b mutants at a dose of 10 μg/mL. […] Phospho-Stat3 band intensities were normalized to β-Actin control bands and quantified in Image J (NIH).
FIGS. 12A-12C show a ketoprofen dose-response and proposed mechanistic link. […] FIG. 12B is a dose-response graph for ketoprofen (KETO). Two pools of 20 larvae from heterozygous ryr1b matings were treated with DMSO or four different concentrations of KETO (1.0-100.0 μg/mL) at 1 dpf and evaluated in terms of touch-evoked escape behaviors at 5 dpf (n=40). Following phenotypic scoring, all living embryos were genotyped using three-primer genomic PCR. Swimming scores for larvae genotype-confirmed as ryr1b homozygous mutants are shown as a percentage of the total number of living larvae in each dose category: 1=poor swimming, 2 or 3=moderate or wild-type swimming. […] Phosphorylated STATs form dimers, translocate to nuclei, and from there are associated with various transcriptional activities. Dubowitz, V. and Sewry, C. (2006) Muscle Biopsy: A Practical Approach. Elsevier-Health Sciences Division.
The relatively relaxed zebrafish was initially identified due to a spontaneous autosomal recessive mutation within the ryr1b gene^30. Specifically, ryr1b mutants carry a 4046 base pair (bp) DNA insertion in the intron between exons 48 and 49 that includes an additional 32 bp sequence found in mutant cDNA (FIG. 3)^30. Genotypes of individual embryos were examined using three-primer genomic PCR, with an expected wild-type band of 1,668 bp and a mutant band of 653 bp. Primer sequences were as follows: ryr1b #1 (forward): 5′-[…]-3′ (SEQ ID NO: 4); ryr1b #2 (reverse): 5′-[…]-3′ (SEQ ID NO: 5); and ryr1b #3 (reverse): 5′-[…]-3′ (SEQ ID NO: 6).
The primary and secondary screens only tested chemical pools and individual compounds at a single concentration (2.0 μg/mL). Although beneficial in a high-throughput context, this approach can result in false positives and false negatives. […] For analysis, pools of 20 larvae obtained from heterozygous ryr1b matings were treated in duplicate with DMSO or with one of three different concentrations of NIF (1.0-100.0 μg/mL) at 1 dpf and scored for touch-evoked escape behaviors at 5 dpf. All scored larvae were then genotyped using three-primer genomic PCR. […] Next, hit expansion was used to verify JAK-STAT as a potential molecular pathway involved in ryr1b mutant pathology. […] A higher effective dose for 5,15-DPP was consistent with the IC50 measurements reported for each compound^40,41.

[3] = test system: ryr1b homozygous mutant zebrafish; test: Secondary screen of individual chemicals in ryr1b zebrafish (vitality: survival and touch-evoked escape behavior); type: in vivo, zebrafish (Danio rerio); set-up: key: vitality score, theoretical range 0–60; DMSO controls expected ~50; settings: 2.0 μg/mL from 1 dpf, scored at 5 dpf; average of two replicates of 20 larvae from heterozygous ryr1b matings; score=(#Dead*0)+(#ryr1b*1)+(#Moderate*2)+(#Wild-type*3), max 60, expected 50 in DMSO controls
Protocol: Each scored compound represents an average of two replicates, consisting of 20 larvae from heterozygous ryr1b matings (n=40). Larvae obtained from wild-type AB matings served as positive controls. […] Significance was determined by pairwise comparisons between control and experimental pools using a Student's t-test. Vitality score=(#Dead*0)+(#ryr1b*1)+(#Moderate*2)+(#Wild-type*3). Standard deviations shown for positive and negative controls were calculated based on results from 5 and 21 independent experiments, respectively.
Primary screen. For the primary screen, twenty embryos (1 dpf) resulting from a mating of heterozygous ryr1b zebrafish were manually sorted into 48-well plates containing 250 μL embryo 1×E3 medium (5.0 mM NaCl, 0.17 mM KCl, 0.33 mM CaCl2*2H2O, 0.33 mM MgSO4*7H2O) and four pooled chemicals from the Prestwick2 chemical library. Each chemical pool was assayed in duplicate using embryos from two independent clutches, for a total of 24 distinct pools tested per plate (FIG. 1). The chemicals were dissolved to a final concentration of 2.0 μg/mL and 0.4% DMSO, which is similar to concentrations other groups have used in zebrafish studies^37,38. As a negative control, twenty embryos from each clutch were cultured without chemicals in vehicle only (0.4% DMSO) (FIG. 1). Larvae obtained from wild-type (Oregon AB) matings served as positive controls in separate plates. All plates containing embryos were incubated at 28.5° C. and maintained as initially treated for 5 days. Dead embryos were removed from wells when observed during the first 4 days of the study. On day 5, dead or “motion-dead” larvae were scored alongside living larvae.
At 5 dpf, pools were scored for their ability to improve the survival and touch-evoked escape behaviors of ryr1b homozygous mutants using the following numeric scoring system: 3=4-6 cm, fast (wild-type); 2=2-4 cm (moderate); 1=<2 cm, slow (ryr1b); 0=no movement (dead) (FIG. 2A). Survival, swimming, and combined endpoints of the primary screen were then examined for their ability to distinguish positive from negative controls. […] Taking into account both experimental replicates (n=40), hit pools contained at least 37 alive larvae on day 5 (i.e., 70-100% of the larvae assumed to be ryr1b mutants survived the duration of the study), and were selected for analysis in a secondary screen.
In the secondary screen, hit pools were separated and tested as 68 individual chemicals. Screening was performed precisely as described for the primary screen with few modifications. Embryos were raised in wells containing 750 μL 1×E3 medium, as opposed to 250 μL, although the final concentration of each compound was maintained at 2.0 μg/mL. […] Vitality scores, weighting survival and swimming ratios appropriately, were calculated as (#Dead*0)+(#ryr1b*1)+(#Moderate*2)+(#Wild-type*3). Theoretical maximum and minimum scores were 60 and 0, respectively, with an expected score of 50 in DMSO-treated controls. Secondary screen hits (P<0.05), considered “candidate” compounds, are currently being examined in dose-response and long-term studies.
The second tier of the chemical screen was performed two years following the primary screen, with a fully established ryr1b^+/− line. Healthier clutches tended to result in better survival of homozygous ryr1b mutants. Median mutant life spans more accurately adhered to the 7-15 day estimate previously published^30. Therefore, in the secondary screen, hit chemical pools were separated into individual compounds and each of 68 total compounds was examined for its ability to positively influence both ryr1b survival and motor function (referred to in combination as “vitality”). […] These included two anti-inflammatory agents (sulfasalazine and ketoprofen), two monoamine oxidase inhibitors (pargyline hydrochloride and tranylcypromine hydrochloride), and two ion channel modulators (metolazone and nimodipine).

[4] = test system: IL-6; settings: in vitro; cited from earlier work
[5] = test system: ryr1b phenotype; settings: zebrafish, in vivo; cited from earlier work
[6] = test system: myofiber apoptosis and muscle strength; settings: mouse, in vivo; cited from earlier work
[7] = test system: IL-6; settings: skeletal muscle; cited from earlier work

Compound | Vitality Score [3] | further results
C1=Cc2nc1cc1ccc([nH]1)c(-c1ccccc1)c1nc(cc3ccc([nH]3)c2-c2ccccc2)C=C1 [5,15-DPP, 5,15-diphenylporphyrin] |  | satellite cell expansion and muscle generation [1]: promotes satellite cell expansion and rescues defects in muscle generation; genotyped ryr1b larvae in treated pools (evidence of toxicity) ([2]; 5 dpf, 25% mutants expected): less than 25%; dose that improved mobility of ryr1b mutants / optimal activity ([2]; treated at 1 dpf, touch-evoked escape behaviors at 5 dpf, tested 1.0-100.0 μg/mL): 100.0 µg/mL and 100 µg/mL; touch-evoked escape behaviors / mobility of ryr1b mutants [2]: ryr1b mutants were among larvae that exhibited wild-type touch-evoked escape behaviors
N#C/C(=C/c1ccc(O)c(O)c1)C(=O)NCc1ccccc1 [AG490] |  | satellite cell expansion and muscle generation [1]: promotes satellite cell expansion and rescues defects in muscle generation
CCCCOc1cc(C(=O)OCCN(CC)CC)ccc1N [Benoxinate hydrochloride] | 52.5 | 
CC(=O)N(CC(O)CO)c1c(I)c(C(=O)NCC(O)CO)c(I)c(C(=O)NCC(O)CO)c1I (stereo not drawn) [Iohexol] | 53.5 | 
CC(C(=O)O)c1cccc(C(=O)c2ccccc2)c1 (stereo not drawn) [Ketoprofen] | 52.0 | touch-evoked escape behaviors / mobility of ryr1b mutants [2]: confirmed a relationship between ketoprofen and improvements in ryr1b mobility; production of IL-6 [4]: inhibits the production of IL-6 in vitro
Cc1ccccc1N1C(=O)c2cc(S(N)(=O)=O)c(Cl)cc2NC1C (stereo not drawn) [Metolazone] | 55.5 | 
Clc1ccc(COC(Cn2ccnc2)c2ccc(Cl)cc2Cl)c(Cl)c1 (stereo not drawn) [Miconazole] | 54.0 | 
CC(=O)N[C@@H](CS)C(=O)O [N-acetylcysteine] |  | effect on ryr1b phenotype [5]: shown to ameliorate select aspects of the ryr1b phenotype
COCCOC(=O)C1=C(C)NC(C)=C(C(=O)OC(C)C)C1c1cccc([N+](=O)[O-])c1 (stereo not drawn) [Nimodipine] | 52.0 | 
C#CCN(C)Cc1ccccc1 [Pargyline hydrochloride] | 58.0 | myofiber apoptosis and muscle strength [6]: significantly decreases myofiber apoptosis and increases muscle strength
O=C(O)c1cc(/N=N/c2ccc(S(=O)(=O)Nc3ccccn3)cc2)ccc1O [Sulfasalazine] | 57.0 | IL-6 release [7]: inhibit IL-6 release in skeletal muscle
Clc1ccccc1CN1CCc2sccc2C1 [Ticlopidine hydrochloride] | 54.0 | 
N[C@@H]1C[C@H]1c1ccccc1 [Tranylcypromine hydrochloride] | 52.0 | 
CN(C)C/C=C(/c1ccc(Br)cc1)c1cccnc1 [Zimelidine dihydrochloride monohydrate] | 55.0 | 
